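Step 1: Grow cells in 96-well plates. Step 2: Expose to compound for 48 hours at 5 concentrations. Step 3: Interpolate endpoints linearly; if unreached, use highest concentration. Here, GI50 denotes the concentration required for 50% inhibition of growth. At the TGI there is no net growth.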
Key:
Test in all cases: NCI tumour cell line growth inhibition, 48 h
786-0 renal = tested on: 786-0 renal
A498 renal = tested on: A498 renal
A549 NSCLC = tested on: A549 NSCLC
ACHN renal = tested on: ACHN renal
BT-549 breast = tested on: BT-549 breast
CCRF-CEM leukemia = tested on: CCRF-CEM leukemia
COLO 205 colon = tested on: COLO 205 colon
DU-145 prostate = tested on: DU-145 prostate
EKVX NSCLC = tested on: EKVX NSCLC
HCC-2998 colon = tested on: HCC-2998 colon
HCT-116 colon = tested on: HCT-116 colon
HCT-15 colon = tested on: HCT-15 colon
HL-60(TB) leukemia = tested on: HL-60(TB) leukemia
HOP-62 NSCLC = tested on: HOP-62 NSCLC
HOP-92 NSCLC = tested on: HOP-92 NSCLC
HS 578T breast = tested on: HS 578T breast
HT29 colon = tested on: HT29 colon
IGROV1 ovarian = tested on: IGROV1 ovarian
K-562 leukemia = tested on: K-562 leukemia
KM12 colon = tested on: KM12 colon
LOX IMVI melanoma = tested on: LOX IMVI melanoma
M14 melanoma = tested on: M14 melanoma
MALME-3M melanoma = tested on: MALME-3M melanoma
MCF7 breast = tested on: MCF7 breast
MDA-MB-231 breast = tested on: MDA-MB-231 breast
MDA-MB-435 = tested on: MDA-MB-435
MDA-MB-468 breast = tested on: MDA-MB-468 breast
MOLT-4 leukemia = tested on: MOLT-4 leukemia
NCI-H226 lung = tested on: NCI-H226 lung
NCI-H23 lung = tested on: NCI-H23 lung
NCI-H460 lung = tested on: NCI-H460 lung
NCI-H522 lung = tested on: NCI-H522 lung
OVCAR-3 ovarian = tested on: OVCAR-3 ovarian
OVCAR-4 ovarian = tested on: OVCAR-4 ovarian
OVCAR-5 ovarian = tested on: OVCAR-5 ovarian
OVCAR-8 ovarian = tested on: OVCAR-8 ovarian
PC-3 prostate = tested on: PC-3 prostate
RPMI-8226 leukemia = tested on: RPMI-8226 leukemia
RXF 393 renal = tested on: RXF 393 renal
SF-268 CNS = tested on: SF-268 CNS
SF-295 CNS = tested on: SF-295 CNS
SF-539 CNS = tested on: SF-539 CNS
SK-MEL-2 melanoma = tested on: SK-MEL-2 melanoma
SK-MEL-28 melanoma = tested on: SK-MEL-28 melanoma
SK-MEL-5 melanoma = tested on: SK-MEL-5 melanoma
SK-OV-3 ovarian = tested on: SK-OV-3 ovarian
SN12C renal = tested on: SN12C renal
SNB-19 CNS = tested on: SNB-19 CNS
SNB-75 CNS = tested on: SNB-75 CNS
SR leukemia = tested on: SR leukemia
T-47D breast = tested on: T-47D breast
TK-10 renal = tested on: TK-10 renal
U251 CNS = tested on: U251 CNS
UACC-257 melanoma = tested on: UACC-257 melanoma
UACC-62 melanoma = tested on: UACC-62 melanoma
UO-31 renal = tested on: UO-31 renal

SMILES: CN(C)C(=O)c1cc(-c2ccc3ncnc(N4CCc5cc(F)c(Cl)cc54)c3c2)cnc1N
- GI50 (786-0 renal): 129 nM
- TGI (786-0 renal): 1430 nM
- GI50 (A498 renal): 127 nM
- TGI (A498 renal): 459 nM
- GI50 (A549 NSCLC): 113 nM
- TGI (A549 NSCLC): 1490 nM
- GI50 (ACHN renal): 217 nM
- TGI (ACHN renal): 3.22 µM
- GI50 (BT-549 breast): 74.7 nM
- TGI (BT-549 breast): 437 nM
- GI50 (CCRF-CEM leukemia): 137 nM
- GI50 (COLO 205 colon): 225 nM
- TGI (COLO 205 colon): 540 nM
- GI50 (DU-145 prostate): 95 nM
- TGI (DU-145 prostate): > 100 µM
- GI50 (EKVX NSCLC): 131 nM
- TGI (EKVX NSCLC): 741 nM
- GI50 (HCC-2998 colon): 165 nM
- TGI (HCC-2998 colon): 1030 nM
- GI50 (HCT-116 colon): 111 nM
- TGI (HCT-116 colon): 296 nM
- GI50 (HCT-15 colon): 127 nM
- TGI (HCT-15 colon): 1420 nM
- GI50 (HL-60(TB) leukemia): 57.5 nM
- TGI (HL-60(TB) leukemia): 682 nM
- GI50 (HOP-62 NSCLC): 154 nM
- TGI (HOP-62 NSCLC): 2310 nM
- GI50 (HOP-92 NSCLC): 144 nM
- TGI (HOP-92 NSCLC): 673 nM
- GI50 (HS 578T breast): 30.9 nM
- TGI (HS 578T breast): 437 nM
- GI50 (HT29 colon): 141 nM
- TGI (HT29 colon): 1580 nM
- GI50 (IGROV1 ovarian): 30.1 nM
- TGI (IGROV1 ovarian): 161 nM
- GI50 (K-562 leukemia): 281 nM
- TGI (K-562 leukemia): > 100 µM
- GI50 (KM12 colon): 243 nM
- TGI (KM12 colon): 2070 nM
- GI50 (LOX IMVI melanoma): 170 nM
- TGI (LOX IMVI melanoma): 1170 nM
- GI50 (M14 melanoma): 277 nM
- GI50 (MALME-3M melanoma): 45.5 nM
- TGI (MALME-3M melanoma): 366 nM
- GI50 (MCF7 breast): 32.2 nM
- TGI (MCF7 breast): 1310 nM
- GI50 (MDA-MB-231 breast): 203 nM
- TGI (MDA-MB-231 breast): 1520 nM
- GI50 (MDA-MB-435): 187 nM
- TGI (MDA-MB-435): 3.18 µM
- GI50 (MDA-MB-468 breast): 43 nM
- TGI (MDA-MB-468 breast): 178 nM
- GI50 (MOLT-4 leukemia): 63.8 nM
- TGI (MOLT-4 leukemia): 3.95 µM
- GI50 (NCI-H226 lung): 131 nM
- TGI (NCI-H226 lung): 3.37 µM
- GI50 (NCI-H23 lung): 194 nM
- TGI (NCI-H23 lung): 2860 nM
- GI50 (NCI-H460 lung): 161 nM
- TGI (NCI-H460 lung): > 37.3 µM
- GI50 (NCI-H522 lung): 214 nM
- TGI (NCI-H522 lung): 1510 nM
- GI50 (OVCAR-3 ovarian): 128 nM
- TGI (OVCAR-3 ovarian): 743 nM
- GI50 (OVCAR-4 ovarian): 229 nM
- TGI (OVCAR-4 ovarian): 11.3 µM
- GI50 (OVCAR-5 ovarian): 168 nM
- TGI (OVCAR-5 ovarian): 2450 nM
- GI50 (OVCAR-8 ovarian): 216 nM
- TGI (OVCAR-8 ovarian): 7.5 µM
- GI50 (PC-3 prostate): 104 nM
- TGI (PC-3 prostate): 7.19 µM
- GI50 (RPMI-8226 leukemia): 57.2 nM
- TGI (RPMI-8226 leukemia): 419 nM
- GI50 (RXF 393 renal): 37.9 nM
- TGI (RXF 393 renal): 317 nM
- GI50 (SF-268 CNS): 149 nM
- TGI (SF-268 CNS): 4.27 µM
- GI50 (SF-295 CNS): 244 nM
- TGI (SF-295 CNS): 1250 nM
- GI50 (SF-539 CNS): 135 nM
- TGI (SF-539 CNS): 700 nM
- GI50 (SK-MEL-2 melanoma): 191 nM
- TGI (SK-MEL-2 melanoma): 474 nM
- GI50 (SK-MEL-28 melanoma): 195 nM
- TGI (SK-MEL-28 melanoma): 5.18 µM
- GI50 (SK-MEL-5 melanoma): 125 nM
- TGI (SK-MEL-5 melanoma): 276 nM
- GI50 (SK-OV-3 ovarian): 316 nM
- TGI (SK-OV-3 ovarian): 1750 nM
- GI50 (SN12C renal): 69.8 nM
- TGI (SN12C renal): 3.02 µM
- GI50 (SNB-19 CNS): 276 nM
- TGI (SNB-19 CNS): 3.44 µM
- GI50 (SNB-75 CNS): 23 nM
- TGI (SNB-75 CNS): 649 nM
- GI50 (SR leukemia): 76.5 nM
- TGI (SR leukemia): 815 nM
- GI50 (T-47D breast): 32.3 nM
- TGI (T-47D breast): 1430 nM
- GI50 (TK-10 renal): 137 nM
- TGI (TK-10 renal): 1210 nM
- GI50 (U251 CNS): 200 nM
- TGI (U251 CNS): 2240 nM
- GI50 (UACC-257 melanoma): 198 nM
- TGI (UACC-257 melanoma): 3.92 µM
- GI50 (UACC-62 melanoma): 109 nM
- TGI (UACC-62 melanoma): 440 nM
- GI50 (UO-31 renal): 32.1 nM
- TGI (UO-31 renal): 1860 nM

From PubChem BioAssay (NCI)
